These results are taken from ChEMBL document CHEMBL1146652, “Synthesis and CB1 receptor activities of novel arachidonyl alcohol derivatives” (Bioorg Med Chem Lett, 2004).

Experiment [1] has as its target Cannabinoid receptor 1 (Rattus norvegicus) (UniProt P20272). The experiment is described as follows: Maximal response of cannabinoid receptor to compound was evaluated using [35S]GTP-gamma-S-binding studies. The experiment is classed as functional. For orientation: Binding of GTPγS marks nucleotide exchange on a G protein.
The target in the next experiment is Cannabinoid receptor 1 (Rattus norvegicus, UniProt P20272). Kind of experiment: Cannabinoid receptor 1 dependent activity of compound was evaluated by using [35S]GTP-gamma-S-binding studies. The class given is functional.
Sequence of Cannabinoid receptor 1 (P20272 whole entry): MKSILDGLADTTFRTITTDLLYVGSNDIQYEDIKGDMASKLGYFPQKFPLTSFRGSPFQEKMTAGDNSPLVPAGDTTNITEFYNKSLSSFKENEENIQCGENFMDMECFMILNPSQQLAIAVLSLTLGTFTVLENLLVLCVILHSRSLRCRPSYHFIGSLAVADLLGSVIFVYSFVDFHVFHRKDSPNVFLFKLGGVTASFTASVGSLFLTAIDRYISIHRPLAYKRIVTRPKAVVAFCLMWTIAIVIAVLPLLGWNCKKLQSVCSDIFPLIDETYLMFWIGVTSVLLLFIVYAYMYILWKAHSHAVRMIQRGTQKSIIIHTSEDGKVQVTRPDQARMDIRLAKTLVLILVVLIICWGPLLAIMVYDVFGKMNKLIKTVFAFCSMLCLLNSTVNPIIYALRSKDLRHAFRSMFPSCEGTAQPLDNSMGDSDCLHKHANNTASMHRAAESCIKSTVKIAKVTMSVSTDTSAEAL

Usually Emax stands for the greatest response seen or fitted, relative to the assay's reference. As a reminder, the pEC50 is −log10 of the EC50, conventionally taken in molar units. Low readings indicate a large EC50, high ones a small EC50.

Molecules are shown by their SMILES. pEC50: −log10 of the molar value.

Sequence of Cannabinoid receptor 1 (Rattus norvegicus) (P20272 whole entry): as above

As to `CCCCC/C=C\C/C=C\C/C=C\C/C=C\CCCC(=O)NCCO`, in experiment [1], the maximum response (Emax) worked out at 380%.
Turning to `CCCCC/C=C\C/C=C\C/C=C\C/C=C\CCCCOC(=O)[C@H](O)CO`, in experiment [1], the Emax is 301%. Besides, the pEC50 on Cannabinoid receptor 1 was 4.60.
In the same order, the values of `CCCCC/C=C\C/C=C\C/C=C\C/C=C\CCCCOC(=O)[C@@H](O)CO` are 278% and 4.40.
